This is an account of results in patent US11667602B2, “Compounds and their use” (AstraZeneca AB, priority 2020, dated 2023).

One may read the microsomal CLint as the rate of metabolic loss divided by the concentration. Low readings indicate slow turnover, high ones rapid turnover. For orientation: EC50 means the concentration needed to bring the measured effect to its halfway point. As usually defined, the hepatocyte CLint is the rate of metabolic loss divided by the concentration.

Data set [1] can be described thus: Human Liver Microsomal Stability (Test C). Format: in vitro ADME. As to conditions: human, liver microsomes. The procedure, abridged: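 CLint (μl/min/mg protein) derived from compound depletion in human liver microsomes following a published standardized early-DMPK protocol; replicate determinations given as arithmetic mean.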
(In general: Liver microsomes are a subcellular fraction often used to study metabolism.)

Data set [2] has as its target T1, human RXFP1 (Homo sapiens, UniProt Q9HBX9).
T1 sequence (Q9HBX9 1-757): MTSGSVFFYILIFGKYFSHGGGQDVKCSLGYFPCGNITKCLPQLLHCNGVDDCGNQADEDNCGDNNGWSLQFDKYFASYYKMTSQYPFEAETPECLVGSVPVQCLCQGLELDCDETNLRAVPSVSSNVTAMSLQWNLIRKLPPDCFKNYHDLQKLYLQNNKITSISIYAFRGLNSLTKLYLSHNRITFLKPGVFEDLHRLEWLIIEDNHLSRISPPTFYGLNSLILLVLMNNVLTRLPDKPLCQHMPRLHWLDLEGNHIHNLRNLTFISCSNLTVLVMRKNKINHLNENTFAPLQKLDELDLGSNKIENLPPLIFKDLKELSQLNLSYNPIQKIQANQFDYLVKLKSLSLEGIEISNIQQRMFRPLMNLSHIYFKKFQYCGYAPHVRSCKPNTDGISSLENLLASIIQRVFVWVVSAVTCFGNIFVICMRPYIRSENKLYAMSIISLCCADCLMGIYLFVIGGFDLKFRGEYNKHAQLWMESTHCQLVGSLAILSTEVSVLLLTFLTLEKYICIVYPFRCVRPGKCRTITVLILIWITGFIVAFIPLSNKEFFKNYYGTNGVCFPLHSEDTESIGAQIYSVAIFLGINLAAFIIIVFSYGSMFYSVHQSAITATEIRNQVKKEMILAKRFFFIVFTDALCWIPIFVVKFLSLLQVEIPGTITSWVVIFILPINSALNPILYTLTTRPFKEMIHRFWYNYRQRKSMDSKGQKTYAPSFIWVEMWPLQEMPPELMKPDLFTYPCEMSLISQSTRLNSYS
Kind of data set: RXFP1 Hu cAMP (Test A). Also noted: expressed in transfected cells; host or cells: Jump-In T-REx CHO-K1 cells (ThermoFisher), induced with 10 ng/ml doxycycline for 24 h. To be noted: RXFP1 Hu cAMP; for EC50: read-out: Test A EC50. Format: cell-based. A digest of the protocol: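 Cells: CHO-K1 stably carrying human RXFP1, expressed after 24 h 10 ng/ml doxycycline; 0.5 mM IBMX final, HTRF detection after 2 h at room temperature.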

Data set [3] addresses T1, human RXFP1. Kind of data set: Human RXFP1 cGMP Production Assay (Test G). It is filed as cell-based. Also noted: expressed in transfected cells. To be noted: HEK293s cells stably transfected with human RXFP1; Green GENIe cGMP biosensor, area under curve 0 to 90 min. The source says: Human RXFP1 cGMP Production Assay (Test G)
To profile compounds for RXFP1 agonist activity with respect to cGMP production, the Green GENIe cGMP Assay (Montana Molecular; catalogue number D800G) was employed. The assay is based on an nmNeonGreen fusion protein fluorescent biosensor delivered to mammalian cells in a BacMam vector. Fluorescence is reduced when cGMP is bound to the biosensor.
Cells: HEK293s cells stably transfected with human RXFP1 in pIRESneo3 was employed.
Day 1 • 1. Cells were splitted one day ahead of transduction and seeded to 63 000 cells/cm2 in DMEM medium with 10% FBS without antibiotics in a tissue culture flask.
Day 2 • 2. […] A viral transduction mastermix was prepared by mixing reagents in the following proportions for a single well: • 6 μL GENIe BacMAM vector • 0.2 μL 500 mM sodium butyrate • 13.8 μL DMEM medium with 10% FBS • 20 μL total volume • 5. Cells and transduction mastermix were mixed in proportions 30 μL cells and 20 μL mastermix for a single well. • 6. […] Plate was incubated in the dark at 37° C., 5% CO2 for 24 h.
Day 3 • 8. Medium was removed from plates using a Bluewasher (BluCatBio). • 9. 20 μL assay buffer was added with a Multidrop Combi (ThermoFisher). • 10. Plate was incubated in the dark at room temperature for 30 min prior to assaying. • 11. Plates were assayed using a FLIPR Tetra (Molecular Devices): 10 μL compound diluted with assay buffer was added to each well by the FLIPR Tetra and measuring green fluorescence over time for up to 3 h.
Data was processed using Screener software (Genedata A G). After subtraction of background fluorescence (before addition of compounds), area under curve values from 0 to 90 min after compound addition was used for calculation of responses.

Data set [4] is described as follows: Rat Hepatocyte Stability (Test E). Format: in vitro ADME. As to conditions: rat, hepatocytes, geometric mean if run multiple times. A digest of the protocol:
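Intrinsic clearance in rat hepatocytes, expressed as μl/min/10^6 cells, following the literature integrated DMPK panel method. Repeat determinations combined as geometric mean.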

In turn, `COc1cc(F)c(O[C@H]2CC[C@@](C)(C(=O)O)CC2)cc1C(=O)N[C@@H]1[C@H]2CC[C@H](C2)[C@@H]1C(=O)Nc1cccc(S(=O)(=O)C(F)(F)F)c1` [Example 208, (1S,4s)-4-(2-Fluoro-4-methoxy-5-(((1S,2R,3S,4R)-3-((3-((trifluoromethyl)sulfonyl)phenyl)carbamoyl)bicyclo[2.2.1]heptan-2-yl)carbamoyl)phenoxy)-1-methylcyclohexane-1-carboxylic acid] yielded a microsomal CLint in data set [1] of 54 µL/min/mg. Also, on human RXFP1 [2], the “Test A Sinf” value stood at 108%. Moreover, the EC50 on human RXFP1 [2] was under 2 nM; on human RXFP1 [3], 9.3 nM. Moreover, in data set [4], the hepatocyte CLint was 35 µL/min/1e6 cells.

On to `COc1cc(F)c(O[C@H]2CC[C@@H](C(=O)O)CC2)cc1C(=O)N[C@@H]1[C@H]2CC[C@H](C2)[C@@H]1C(=O)Nc1ccc(F)c(S(F)(F)(F)(F)F)c1` [Example 433], for which, in data set [1], the microsomal CLint was 43 µL/min/mg. Also, the “Test A Sinf” value on human RXFP1 [2] worked out at 109%. The results for the EC50 at human RXFP1 [2] and at human RXFP1 [3] were 5.3 nM and 19 nM, respectively. Further, in data set [4], the hepatocyte CLint is 17 µL/min/1e6 cells.

In turn, `COc1cc(F)c(-c2ccc(C(=O)O)cc2)cc1C(=O)N[C@H]1[C@@H](C(=O)Nc2cccc(S(=O)(=O)C(F)(F)F)c2)[C@@H]2C=C[C@H]1C2` (single isomer, unassigned) [Example 552] yielded a microsomal CLint in data set [1] of 7.2 µL/min/mg. Besides, on human RXFP1 [2], the “Test A Sinf” value turned out to be 98% and the EC50 was 140 nM. Further, at human RXFP1 [3], it took 300 nM to reach a half-maximal effect (EC50). In data set [4], the hepatocyte CLint turned out to be 16 µL/min/1e6 cells.

In data set [1], `COc1cc(F)c(O[C@H]2CC[C@@](C)(C(=O)O)CC2)cc1C(=O)N[C@@H]1[C@H]2CC[C@H](C2)[C@@H]1C(=O)Nc1ccc(F)c(S(F)(F)(F)(F)F)c1` [Example 353] came in with a microsomal CLint of 61 µL/min/mg. On human RXFP1 [2], the “Test A Sinf” value is 114% and the EC50 was 0.41 nM. At human RXFP1 [3], this molecule yielded an EC50 of 3.7 nM. The same molecule showed a hepatocyte CLint in data set [4] of 23 µL/min/1e6 cells.
